Assay results published in PMC4590290 (Bioorganic chemistry, 2009).

Key:
GlAD [1] = target: T1, GlAD (Giardia duodenalis, UniProt Q27657); type: biochemical; details: read-out: KI; pH 7.5, 25 °C, 50 mM K+HEPES; covalent; irreversible, two-step inactivation; active site directed
GlAD [2] = target: T1, GlAD; experiment: steady-state inhibition, glutamate dehydrogenase-coupled assay; type: biochemical

SMILES	KI (inactivation) (GlAD [1]) [mM]	Ki (GlAD [2]) [mM]
N[C@@H](CCSN=O)C(=O)O [S-nitroso-L-homocysteine]	40 ± 10	
N=C(N)NCCCCN [agmatine]		50 ± 10
N=C(N)NCCCC[C@H](N)C(=O)O [L-homoarginine]		48 ± 6
